# Measured values published in patent US10208074B2, “Pyrazole compounds and method for making and using the compounds” (Rigel Pharmaceuticals, Inc., priority 2015, dated 2019).
# Counter-ions that a name gives are not always drawn. Like-named read-outs stand apart in the source and are kept apart here.
# Assays:
# IL-23 (p19/p40) = test: IL23-p19 ELISA, Dendritic, LPS (compound screening using DC cells); type: cell-based, Human; settings: PBMC-derived DC cells, IFNγ primed, LPS 1 μg/ml, 18 hours, 10 pt, read-out: IL23-p19 ELISA, Dendritic, LPS, 10 pt, EC50
# Method in brief: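 Human PBMC-derived dendritic cells (7 d GM-CSF 100 ng/ml + IL-4 20 ng/ml), primed 24 h with IFNγ 50 ng/ml, pre-incubated 1 h with compound, then stimulated 18 h with LPS 1 μg/ml. Supernatant IL-23 measured by p19-capture/p40-detection chemiluminescent ELISA; CellTiter Glo checks cytotoxicity.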
# IL-23p19 = test: LPS induced IL23p19 in THP-1 cells (with IFNγ primed) assay; type: cell-based, Human; settings: THP-1 cells, IFNγ primed, LPS 1 ug/mL, 18 hours, 10 pt, read-out: IL23-p19 ELISA, THP1-IFNy, LPS, 10 pt EC50
# Method in brief: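 THP-1 cells primed ~18 h with IFNγ (50 ng/mL), pre-incubated 1 h with compound at 37 °C, then stimulated 18 h with LPS (1 ug/mL final). Supernatant IL-23p19 measured by sandwich ELISA with chemiluminescent read-out; EC50 from curve fitting. Toxicity checked on the remaining cells by Cell Titer Glo.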
SMILES,"EC50 (IL-23 (p19/p40); Homo sapiens, 18 h)","EC50 (IL-23p19; Homo sapiens, THP-1, 18 h)",EC50 (IL-23 (p19/p40); formate),EC50 (IL-23 (p19/p40)),EC50 (IL-23p19)
"O=C(Nc1cn([C@H]2CC[C@@H](O)CC2)nc1-c1ccccn1)c1ccc(-c2cn[nH]c2)o1 [Compound I-124, N-(1-((1s,4s)-4-hydroxycyclohexyl)-3-(pyridin-2-yl)-1H-pyrazol-4-yl)-5-(1H-pyrazol-4-yl)furan-2-carboxamide formate]",0.101 µM,0.0534 µM,,,
"O=C(Nc1cn([C@H]2CC[C@H](O)CC2)nc1-c1ccccn1)c1ccc(-c2cn[nH]c2)o1 [Compound I-126, N-(1-((1r,4r)-4-hydroxycyclohexyl)-3-(pyridin-2-yl)-1H-pyrazol-4-yl)-5-(1H-pyrazol-4-yl)furan-2-carboxamide formate]",0.0215 µM,0.0819 µM,,,
"O=C(Nc1cn([C@H]2C[C@H](OCC(F)(F)F)C2)nc1-c1ccccn1)c1ccc(-c2cn[nH]c2)o1 [Compound I-128, 5-(1H-pyrazol-4-yl)-N-(3-(pyridin-2-yl)-1-(3-(2,2,2-trifluoroethoxy)cyclobutyl)-1H-pyrazol-4-yl)furan-2-carboxamide formate]",0.0604 µM,0.134 µM,,,
"CCO[C@H]1CC[C@H](n2cc(NC(=O)c3ccc(-c4cn[nH]c4)o3)c(-c3ccccn3)n2)CC1 [Compound I-130, N-(1-((1r,4r)-4-ethoxycyclohexyl)-3-(pyridin-2-yl)-1H-pyrazol-4-yl)-5-(1H-pyrazol-4-yl)furan-2-carboxamide formate]",0.023 µM,0.0483 µM,,,
"CCO[C@@H]1CC[C@H](n2cc(NC(=O)c3ccc(-c4cn[nH]c4)o3)c(-c3ccccn3)n2)C1 [Compound I-132, N-(1-((1S,3R)-3-ethoxycyclopentyl)-3-(pyridin-2-yl)-1H-pyrazol-4-yl)-5-(1H-pyrazol-4-yl)furan-2-carboxamide formate]",,0.0812 µM,0.103 µM,,
"CCO[C@@H]1CC[C@H](n2cc(NC(=O)c3ccc(-c4cn[nH]c4)o3)c(-c3ccccn3)n2)C1 [Compound I-133, N-(1-((1S,3R)-3-ethoxycyclopentyl)-3-(pyridin-2-yl)-1H-pyrazol-4-yl)-5-(1H-pyrazol-4-yl)furan-2-carboxamide]",,,,0.387 µM,0.0806 µM
"O=C(Nc1cn([C@H]2CC[C@@H](O)C2)nc1-c1ccccn1)c1ccc(-c2cn[nH]c2)o1 [Compound I-134, N-(1-((1S,3R)-3-hydroxycyclopentyl)-3-(pyridin-2-yl)-1H-pyrazol-4-yl)-5-(1H-pyrazol-4-yl)furan-2-carboxamide formate]",0.091 µM,0.0296 µM,,,
"O=C(Nc1cn([C@H]2CC[C@H](O)C2)nc1-c1ccccn1)c1ccc(-c2cn[nH]c2)o1 [Compound I-136, N-(1-((1S,3S)-3-hydroxycyclopentyl)-3-(pyridin-2-yl)-1H-pyrazol-4-yl)-5-(1H-pyrazol-4-yl)furan-2-carboxamide formate]",0.0878 µM,0.0448 µM,,,
"CCO[C@H]1C[C@@H](n2cc(NC(=O)c3ccc(-c4cn[nH]c4)o3)c(-c3ccc(F)cn3)n2)C1 [Compound I-138, N-(1-((1s,3s)-3-ethoxycyclobutyl)-3-(5-fluoropyridin-2-yl)-1H-pyrazol-4-yl)-5-(1H-pyrazol-4-yl)furan-2-carboxamide formate]",0.686 µM,0.926 µM,,,
"CCO[C@@H]1C[C@H](n2cc(NC(=O)c3ccc(-c4cn[nH]c4)o3)c(-c3ccccn3)n2)C1F (stereo partly drawn) [Compound I-140, N-(1-((1S,3R)-3-ethoxy-2-fluorocyclobutyl)-3-(pyridin-2-yl)-1H-pyrazol-4-yl)-5-(1H-pyrazol-4-yl)furan-2-carboxamide formate]",0.224 µM,0.799 µM,,,
"CCO[C@H]1C[C@@H](n2cc(NC(=O)c3ccc(-c4cn[nH]c4)o3)c(-c3ncccc3F)n2)C1 [Compound I-142, N-(1-((1s,3s)-3-ethoxycyclobutyl)-3-(3-fluoropyridin-2-yl)-1H-pyrazol-4-yl)-5-(1H-pyrazol-4-yl)furan-2-carboxamide formate]",0.0262 µM,0.0689 µM,,,
"CCO[C@H]1C[C@@H](n2cc(NC(=O)c3ccc(-c4cn[nH]c4)o3)c(-c3cccc(F)n3)n2)C1 [Compound I-144, N-(1-((1s,3s)-3-ethoxycyclobutyl)-3-(6-fluoropyridin-2-yl)-1H-pyrazol-4-yl)-5-(1H-pyrazol-4-yl)furan-2-carboxamide formate]",0.0343 µM,0.078 µM,,,
"O=C(Nc1cn([C@H]2C[C@@H](OCC(F)(F)F)C2)nc1-c1ccccn1)c1ccc(-c2cn[nH]c2)o1 [Compound I-146, 5-(1H-pyrazol-4-yl)-N-(3-(pyridin-2-yl)-1-((1s,3s)-3-(2,2,2-trifluoroethoxy)cyclobutyl)-1H-pyrazol-4-yl)furan-2-carboxamide formate]",0.37 µM,0.149 µM,,,
"CCO[C@H]1C[C@@H](n2cc(NC(=O)c3ccc(-c4cn[nH]c4)o3)c(-c3cc(F)ccn3)n2)C1 [Compound I-148, N-(1-((1s,3s)-3-ethoxycyclobutyl)-3-(4-fluoropyridin-2-yl)-1H-pyrazol-4-yl)-5-(1H-pyrazol-4-yl)furan-2-carboxamide formate]",0.11 µM,0.173 µM,,,
"O=C(Nc1cn([C@H]2C[C@@H](OCC(F)(F)F)C2)nc1-c1cccc(F)n1)c1ccc(-c2cn[nH]c2)o1 [Compound I-150, N-(3-(6-fluoropyridin-2-yl)-1-((1s,3s)-3-(2,2,2-trifluoroethoxy)cyclobutyl)-1H-pyrazol-4-yl)-5-(1H-pyrazol-4-yl)furan-2-carboxamide formate]",0.226 µM,0.0648 µM,,,
"O=C(Nc1cn([C@H]2C[C@@H](OCC(F)(F)F)C2)nc1-c1ncccc1F)c1ccc(-c2cn[nH]c2)o1 [Compound I-152, N-(3-(3-fluoropyridin-2-yl)-1-((1s,3s)-3-(2,2,2-trifluoroethoxy)cyclobutyl)-1H-pyrazol-4-yl)-5-(1H-pyrazol-4-yl)furan-2-carboxamide formate]",0.0716 µM,0.0319 µM,,,
"CCO[C@H]1C[C@@H](n2cc(NC(=O)c3ccc(-c4cn[nH]c4)o3)c(-c3nc(F)ccc3F)n2)C1 [Compound I-156, N-(3-(3,6-difluoropyridin-2-yl)-1-((1s,3s)-3-ethoxycyclobutyl)-1H-pyrazol-4-yl)-5-(1H-pyrazol-4-yl)furan-2-carboxamide]",0.105 µM,0.0595 µM,,,
"CC(C)(O)Cn1cc(NC(=O)c2csc(-c3cn[nH]c3)n2)c(-c2ccccn2)n1 [II-1, N-(1-(2-hydroxy-2-methylpropyl)-3-(pyridin-2-yl)-1H-pyrazol-4-yl)-2-(1H-pyrazol-4-yl)thiazole-4-carboxamide]",0.779 µM,0.129 µM,,,
"CC(OC(=O)C(C)C)OC(=O)n1cc(-c2nc(C(=O)Nc3cn(C)nc3-c3ccccn3)cs2)cn1 (centres unmarked) [II-2, 1-(isobutyryloxy)ethyl 4-(4-((1-methyl-3-(pyridin-2-yl)-1H-pyrazol-4-yl)carbamoyl)thiazol-2-yl)-1H-pyrazole-1-carboxylate]",0.298 µM,0.196 µM,,,
"CC(C)[C@H](NC(=O)OC(C)(C)C)C(=O)n1cc(-c2nc(C(=O)Nc3cn(C)nc3-c3ccccn3)cs2)cn1 [II-3, tert-butyl (S)-(3-methyl-1-(4-(4-((1-methyl-3-(pyridin-2-yl)-1H-pyrazol-4-yl)carbamoyl)thiazol-2-yl)-1H-pyrazol-1-yl)-1-oxobutan-2-yl)carbamate]",0.371 µM,0.198 µM,,,
"Cc1oc(=O)oc1Cn1cc(-c2nc(C(=O)Nc3cn(C)nc3-c3ccccn3)cs2)cn1 [II-4, 2-(1-((5-methyl-2-oxo-1,3-dioxol-4-yl)methyl)-1H-pyrazol-4-yl)-N-(1-methyl-3-(pyridin-2-yl)-1H-pyrazol-4-yl)thiazole-4-carboxamide]",0.307 µM,0.0861 µM,,,
"Cn1cc(NC(=O)c2csc(-c3cnn(C(=O)OC4(C)CC4)c3)n2)c(-c2ccccn2)n1 [II-5, 1-methylcyclopropyl 4-(4-((1-methyl-3-(pyridin-2-yl)-1H-pyrazol-4-yl)carbamoyl)thiazol-2-yl)-1H-pyrazole-1-carboxylate]",0.157 µM,0.0902 µM,,,
"COc1ccc(COCC(C)(C)OC(=O)n2cc(-c3nc(C(=O)Nc4cn(C)nc4-c4ccccn4)cs3)cn2)cc1 [II-6, 1-((4-methoxybenzyl)oxy)-2-methylpropan-2-yl 4-(4-((1-methyl-3-(pyridin-2-yl)-1H-pyrazol-4-yl)carbamoyl)thiazol-2-yl)-1H-pyrazole-1-carboxylate]",6.89 µM,0.0874 µM,,,
"O=C(Nc1cn(C2CCOCC2)nc1-c1ccccn1)c1csc(-c2cn[nH]c2)n1 [II-10, 2-(1H-pyrazol-4-yl)-N-(3-(pyridin-2-yl)-1-(tetrahydro-2H-pyran-4-yl)-1H-pyrazol-4-yl)thiazole-4-carboxamide]",0.0105 µM,0.0226 µM,,,
"CCO[C@H]1C[C@@H](n2cc(NC(=O)c3csc(-c4cn[nH]c4)n3)c(-c3ccccn3)n2)C1 [II-11, N-(1-((1,3-cis)-3-ethoxycyclobutyl)-3-(pyridin-2-yl)-1H-pyrazol-4-yl)-2-(1H-pyrazol-4-yl)thiazole-4-carboxamide]",0.0623 µM,0.05 µM,,,
